# Laboratory results published in patent publication US6521647B2, “Treatment of renal disorders” (Pfizer Inc., priority 2000, dated 2003).
# Columns and labels:
# [1] = system: normotensive nephrectomised cats with chronic renal failure; test: GFR in normotensive nephrectomised cats with chronic renal failure (Example 1); format: in vivo, cat; conditions: amlodipine besylate once daily at 0.125 mg/kg; after 35 days; no change in placebo group
# Method: In this experiment, comparative groups of normotensive nephrectomised cats with chronic renal failure had their GFR measured. […] After 35 days the GFR was measured again. There was no change in the placebo group, but the GFR had increased by an average of ca. 28% for the amlodipine-treated group.
# [2] = system: cats with chronic renal failure; test: GFR from plasma clearance of iohexol in client-owned normotensive cats with spontaneous chronic renal failure (Experiment 2); format: in vivo, cat
# Description: The data in the Table below were collected from client-owned, pet cats that had been diagnosed with spontaneous chronic renal failure (chronic renal insufficiency). These cats were presented by owners/clients to veterinary practices for evaluation of general health, kidney function, and systolic blood pressure.
# Chronic renal failure is generally considered an irreversible and progressive disease in cats. […] Cats were considered normotensive as defined by systolic arterial blood pressure less than 160 mm Hg prior to the onset of treatment.
# Renal function was assessed by determining glomerular filtration rate (GFR). GFR was estimated from plasma clearance of the exogenous marker, iohexol, approximately 7 days prior to the onset of treatment (day—7) and on approximately days 28, 56, 112, and 224 following onset of treatment.
smiles,measurement,setting,value
"CCOC(=O)C1=C(COCCN)NC(C)=C(C(=O)OC)C1c1ccccc1Cl (stereo not drawn) [Amlodipine, amlodipine besylate]",increase in GFR (average),[1],ca. 28%
same,GFR increase on average between day −7 and day 224,"[2]; 0.125 to 0.25 mg/kg once daily oral, placebo declined 17%",9%
same,effect on decline in renal function (in words),[2]; 0.125 to 0.25 mg/kg/day orally,prevents the decline in function associated with the progression of chronic renal failure in cats
